Measured values reported in patent publication US5804576A, “Derivatives of 5-androsten-17-ones and 5-androstan-17-ones” (Research Corporation Technologies, Inc., priority 1986, dated 1998).
“And” between values parts separate entries of the source, which are not always exact repeats. Equal values may be shown once. “Also recorded” adds a separate entry of the source.

Legend:
[1] = tested on: DMBA-initiated and TPA-promoted skin papilloma formation in mice; settings: mouse, in vivo; cited from earlier work
[2] = tested on: seminal vesicles plus prostate glands; test: Androgenic and anti-androgenic activity (seminal vesicle plus prostate weight); assay type: in vivo, mouse (male A/J); settings: for Mean Seminal Vesicle plus Prostate Weight ± S.D.: 4 weeks; for androgenic / anti-androgenic effect, seminal vesicle plus prostate weight (in words): diet, male A/J mice
Description: Male A/J mice (5 weeks old) were obtained from the Jackson Laboratory and were housed in polycarbonate cages (5 mice/cage) in animal quarters maintained at 24°±1° C. with 12 hours of light and 12 hours of darkness each day. One week after arrival, mice were placed on a chow diet containing either 0.18% or 0.09% 16 or without steroid. Mice were weighed weekly. After 4 weeks, the mice were killed, and the seminal vesicles plus prostate glands were dissected out and weighed.
(a) Male A/J mice (5 weeks old) were obtained from the Jackson Laboratory and were housed in polycarbonate cages (5 mice/cage) in animal quarters maintained at 24°[…] C. with 12 hours of light and 12 hours of darkness each day. One week after arrival, the mice were placed on a chow diet containing one of the test compounds of the present invention at 0.36%. After 4 weeks of treatment, the above mice were killed, and the seminal vesicles and prostate glands were dissected out and weighed.

[3] = molecular target: T1, purified bovine adrenal G6PDH (Bos taurus, UniProt F1MMK2); test: Inhibition of purified bovine adrenal G6PDH; assay type: biochemical; settings: for inhibition at 0.1 µM: Conc. 0.1 μm; for inhibition at 0.1 µM / inhibition at 1 µM / inhibition at 10 µM: read-out: Percent Inhibition (G6PDH)
T1 construct: full-length, wild type, no tag
T1 sequence (F1MMK2 31-70): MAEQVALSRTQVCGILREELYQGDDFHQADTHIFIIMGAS
T1 sequence (F1MMK2 101-575): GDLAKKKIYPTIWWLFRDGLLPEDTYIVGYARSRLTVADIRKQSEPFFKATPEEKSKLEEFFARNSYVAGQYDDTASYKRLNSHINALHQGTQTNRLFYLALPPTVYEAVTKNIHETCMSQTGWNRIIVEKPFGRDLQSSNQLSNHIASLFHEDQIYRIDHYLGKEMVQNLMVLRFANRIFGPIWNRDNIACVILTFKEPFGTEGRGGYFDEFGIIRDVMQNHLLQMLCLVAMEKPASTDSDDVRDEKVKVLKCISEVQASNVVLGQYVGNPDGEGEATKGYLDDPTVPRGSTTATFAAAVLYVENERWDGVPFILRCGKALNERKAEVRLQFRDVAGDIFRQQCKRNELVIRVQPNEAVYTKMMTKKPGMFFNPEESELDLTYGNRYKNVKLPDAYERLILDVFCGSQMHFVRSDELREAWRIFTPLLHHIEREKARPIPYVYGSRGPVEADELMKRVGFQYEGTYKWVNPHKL
Method in brief: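 Inhibition of purified bovine adrenal G6PDH enzyme activity, run by the published Oertel and Rebelein (1969) procedure.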

[4] = tested on: mammalian glucose-6-phosphate dehydrogenase (G6PDH); settings: cited from earlier work
[5] = tested on: [3H]DMBA binding to skin DNA; test: [3H]DMBA binding to skin DNA, oral steroid; assay type: in vivo, mouse (male A/J); settings: four weeks treatment with 400 mg/kg
[6] = tested on: rat uterus; test: Uterotrophic test, subcutaneous (Compound 2 vs. DHEA); assay type: in vivo; settings: n = 4 or 5
Description: Twenty-two day old rats were obtained from Charles River Laboratories. Animals were used at 29 days of age. Test steroids were suspended by homogenization in sesame oil. Rats were orally intubated at 1-2 P.M. for 3 days with a test steroid in sesame oil or with sesame oil alone (control). On the 4th day the animals were killed and the uteri were removed and weighed.
Compound 2 vs. DHEA. Compounds Administered by Subcutaneous Injection
Steroids were dissolved in 2 ml ethanol and brought up to 5 ml volume with propylene glycol. Concentrations were such that 1 μl/gm body weight delivered the indicated dose.

[7] = tested on: 3H-thymidine incorporation in mouse epidermis; settings: in vivo; cited from earlier work
[8] = tested on: [3H]DMBA binding to skin DNA; test: [3H]DMBA binding to skin DNA, oral steroid; assay type: in vivo, mouse (male A/J)
Description: Male A/J mice were orally intubated with steroid suspended in sesame oil (0.5 ml/mouse) at the indicated dose. Mice not receiving steroid were given sesame oil alone. Food restricted mice received approximately 60% of food of Ad libitum fed for two weeks. One hour after oral intubation, topical [^3 H]DMBA was applied to the skin, and the amount bound to DNA was determined 12 hours later as described in Table 4.
Male A/J mice were orally intubated with steroid suspended in sesame oil (0.5 ml/mouse) at the indicated dose. Mice not receiving steroid were given sesame oil alone. One hour after oral intubation, topical [^3 H]DMBA was applied to the skin, and the amount bound to DNA was determined 12 hours later as described in Table 4.

[9] = tested on: rat uterus; settings: 60 mg/kg s.c. for 3 days, sexually immature rats; cited from earlier work
[10] = tested on: cholesterol; settings: mouse, in vivo; cited from earlier work
[11] = tested on: HeLa cell strain, TCRC-2; settings: HeLa TCRC-2; cited from earlier work
[12] = tested on: rat uterus; mouse seminal vesicle plus prostate; settings: prolonged administration; cited from earlier work
[13] = tested on: breast, lung, and colon tumors; settings: approximately 400 mg/kg daily, long-term; cited from earlier work
[14] = tested on: VY-A^vy /a mice; settings: long-term administration; cited from earlier work
[15] = tested on: Epstein-Barr virus-induced transformation of human lymphocytes; settings: cited from earlier work
[16] = tested on: New Zealand Black (NZB) mice; settings: long-term treatment; cited from earlier work
[17] = tested on: C57BL/KsJ-db/db mice; settings: 0.4% of the diet; cited from earlier work

Compound: C[C@H]1CC[C@@]2(C)C(=CC[C@@H]3[C@@H]2CC[C@]2(C)C(=O)CC[C@@H]32)C1 [Compound 16, 3β-methyl-5-androsten-17-one]
- inhibition of DMBA-initiated and TPA-promoted skin papilloma formation (in words) [1]: inhibit
- Mean Seminal Vesicle plus Prostate Weight ± S.D. ([2]; 0.09% of diet, n = 6): 4.0 ± 0.7 mg/100 gm body weight
- Mean Seminal Vesicle plus Prostate Weight ± S.D. ([2]; 0.18% of diet, n = 6): 3.4 ± 0.11 mg/100 gm body weight
- Mean Seminal Vesicle plus Prostate Weight ± S.D. ([2]; 0.36% of diet, n = 5): 3.0 ± 0.3 mg/100 gm body weight
- androgenic / anti-androgenic effect, seminal vesicle plus prostate weight (in words) [2]: significantly reduced the weight of the seminal vesicles and prostate glands; also recorded: significantly reduced the seminal vesicle plus prostate gland weight
- androgenic / anti-androgenic effect, seminal vesicle plus prostate weight (in words) ([2]; listed as Cmpd. 16): significantly reduced seminal vesicle plus prostate weight
- inhibition at 0.1 µM [3]: 25%
- inhibition at 1 µM ([3]; Conc. 1 μm): 40%
- inhibition at 10 µM ([3]; Conc. 10 μm): 53%

Compound: C[C@]12CC[C@H](O)CC1=CC[C@@H]1[C@@H]2CC[C@]2(C)C(=O)CC[C@@H]12 [DHEA, 3β-Hydroxy-5-androst-en-17-one, reference compound]
- inhibition of DMBA-initiated and TPA-promoted skin papilloma formation (in words) [1]: inhibit
- inhibition of mammalian G6PDH (in words) [4]: potent non-competitive inhibitor of mammalian glucose-6-phosphate dehydrogenase
- 3H-DMBA binding to skin DNA (in words) [5]: does inhibit ^3 H-DMBA binding to skin DNA
- Mean Uterine Weight ([6]; 10 mg/kg s.c.): 152 ± 17 Mgs
- Mean Uterine Weight ([6]; 60 mg/kg s.c.): 290 ± 72 Mgs
- 3H-thymidine incorporation in mouse epidermis (in words) [7]: antagonizes the capacity of the tumor promoter
- SPECIFIC ACTIVITY ([3H]DMBA bound to skin DNA) ([8]; 400 mg/kg p.o., 12 hours): 73.1 ± 16.5 cpm/ug DNA and 92 ± 17.6 cpm/ug DNA
- 3H-DMBA binding to skin DNA (in words) ([8]; oral, single administration): does not inhibit ^3 H-DMBA binding to skin DNA; also recorded: inactive
- uterine enlargement (in words) [9]: produces uterine enlargement
- anti-hypercholesterolemic effect (in words) [10]: anti-hypercholesterolemic effect
- Mean Seminal Vesicle plus Prostate Weight ± S.D. ([2]; 0.36% of diet, n = 5): 6.5 ± 1.2 mg/100 gm body weight
- androgenic / anti-androgenic effect, seminal vesicle plus prostate weight (in words) [2]: significantly reduced seminal vesical plus prostate gland weight
- sensitivity to growth inhibition (in words) [11]: particularly sensitive to DHEA-induced growth inhibition
- estrogenic effect (in words) [12]: evidence of an estrogenic effect after prolonged administration
- tumor development (in words) [13]: inhibit the development of breast, lung, and colon tumors
- inhibition at 0.1 µM [3]: 12%
- Percent Inhibition (G6PDH) ([3]; Conc. 1 μm): 17%
- inhibition at 1 µM ([3]; Conc. 1 μm): 36%
- Percent Inhibition (G6PDH) ([3]; Conc. 10 μm): 57%
- Percent Inhibition (G6PDH) ([3]; Conc. 10 μm, listed as 1): 53%
- inhibition at 10 µM ([3]; Conc. 10 μm): 51%
- development of obesity (in words) [14]: prevented the development of obesity without suppressing appetite
- inhibition of Epstein-Barr virus-induced transformation (in words) [15]: inhibitors of Epstein-Barr virus-induced transformation of human lymphocytes
- rate of development of the autoimmune anemia (in words) [16]: significantly inhibits the rate of development of the autoimmune anemia
- hypoglycemic effect (in words) [17]: marked hypoglycemic effect
- lifespan (in words) [17]: significantly prolonged their lifespan
